From PubChem BioAssay (NCI) come the findings set out here.

Holding throughout (assay): inhibition of tumour cell growth, NCI panel, 48 h
The subject of experiment [1] is 786-0 renal.
Experiment [2] concerns HCT-15 colon.
The test system of experiment [3] is K-562 leukemia.
Experiment [4] concerns OVCAR-5 ovarian.
Experiment [5] relates to SK-MEL-5 melanoma.
The test system of experiment [6] is SNB-19 CNS.
The test system of experiment [7] is SR leukemia.
Experiment [8] deals with SW-620 colon.
For experiment [9], the system named is UACC-62 melanoma.
The test system of experiment [10] is UO-31 renal.

Each structure is given as a SMILES string.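 Values below derive from 48-hour exposures of cells grown in 96-well plates, with endpoints linearly interpolated between the two concentrations bracketing the appropriate inhibition level. The concentration for 50% growth inhibition is given as GI50. TGI marks complete inhibition of growth.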

Take `O=C(O)CNC(=O)C1NC(C(F)(F)F)(C(F)(F)F)OC1(C(F)(F)F)C(F)(F)F` (stereo not given): the TGI in experiment [1], in experiment [2], in experiment [3], in [4], in experiment [5] and in experiment [6] was over 100 µM each time. In addition, the TGI in experiment [7], in [8], in experiment [9] and in experiment [10] was over 100 µM each time.
With `CC1(C)OC2COC(c3[nH]nc4c(=O)[nH]c(=O)[nH]c34)C2O1` (stereo not given), the TGI in [1], in [2], in [3], in experiment [4], in experiment [5] and in experiment [6] was over 100 µM throughout. The TGI in experiment [7], in experiment [8], in experiment [9] and in experiment [10] was over 100 µM each time.
As for `CCN(CC)CCC(=O)N1C/C(=C/c2ccccc2)C(=O)/C(=C\c2ccccc2)C1`, the TGI in experiment [1] was 9.78 µM; in experiment [2] it was 3.91 µM; in experiment [3], 2.62 µM; in experiment [4], 9.76 µM; in [5] it was 3.98 µM; in experiment [6] it was 6.63 µM. Further, the TGI in experiment [7] is over 100 µM; in [8], 0.629 µM; in experiment [9], 4.92 µM; in [10] it was 3.78 µM.
With `COc1ccc(-c2cc(-c3ccc(Cl)cc3)nc(SCCCCCCC(=O)NO)n2)cc1`, the GI50 in experiment [1] was 1.16 µM; in experiment [2] it was 1.46 µM; in [3], 1.72 µM; in experiment [4] it was 1.66 µM; in experiment [5], 1.14 µM; in experiment [6], 1.67 µM. In addition, the GI50 in experiment [7] was 0.59 µM; in [8], 1.43 µM; in experiment [9], 1.13 µM; in experiment [10], 0.758 µM. Moreover, the TGI came to 3.26 µM in experiment [1]; 7.72 µM in experiment [2]; 8.86 µM in experiment [3]; 12.5 µM in [4]; 2.52 µM in experiment [5]; 23.6 µM in experiment [6]. Also, the TGI stood at 3.66 µM in experiment [7], 10.2 µM in experiment [8], 3.51 µM in experiment [9] and 3.05 µM in [10].
For the compound `CC(C)Cc1ccc(C(C)/C=C2\CCC(CN3CCCCC3)C2=O)cc1` (stereo not given), the TGI in experiment [1] was 3.38 µM; in experiment [2], 7.29 µM; in experiment [3] it was 9.19 µM; in [4], 31.6 µM; in experiment [5], 27 µM; in [6] it was 19.6 µM. The TGI came to 8.23 µM in experiment [7], 13.4 µM in [8], 24.2 µM in experiment [9] and 23.7 µM in [10].
Regarding `NC(N)=NC(N)=Nc1ccc(S(N)(=O)=O)cc1`, the TGI in [1], in experiment [2], in [3], in [4], in experiment [5] and in experiment [6] was over 100 µM throughout. Moreover, the TGI in [7], in experiment [8], in experiment [9] and in experiment [10] was over 100 µM each time.
`COc1cc2c(cc1OC)-c1ncc3cc(OC)c(OC)cc3c1C2`: the GI50 in experiment [1], in experiment [2], in experiment [3], in [4], in [5] and in experiment [6] was over 50 µM each time. Also, the GI50 is 31.8 µM in experiment [7], over 50 µM in [8], over 50 µM in experiment [9] and over 50 µM in [10]. Besides, the TGI in [1], in experiment [2], in experiment [3], in [4], in experiment [5] and in [6] was over 50 µM throughout. The TGI in experiment [7], in experiment [8], in experiment [9] and in [10] was over 50 µM each time.
Turning to `C[C@H](C(O)CC(=O)C(C)(C)O)[C@H]1CC[C@@]2(C)[C@@H]3CC[C@H]4C(C)(C)[C@@H](OC5OC(COC6OC(CO)C(O)C(O)C6O)C(O)C(O)C5O)CC[C@]4(C)C3=CC[C@]12C` (stereo not given in full), the TGI in experiment [1], in experiment [2], in experiment [3], in [4], in experiment [5] and in [6] was over 100 µM each time. Besides, the TGI in experiment [7], in experiment [8], in experiment [9] and in experiment [10] was over 100 µM throughout.
Turning to `Cc1ccccc1C[P+](c1ccccc1)(c1ccccc1)c1ccccc1`, the GI50 in [1] is 4.23 µM; in [2], 27.9 µM; in experiment [3], 0.786 µM; in experiment [4] it was 2.86 µM; in [5], 0.375 µM; in experiment [6] it was 2.07 µM. Also, the GI50 in experiment [7] was 2.02 µM; in [8], 2.33 µM; in [9], 0.757 µM; in [10], 40.5 µM. Also, the TGI in [1] was over 100 µM; in [2], over 100 µM; in experiment [3], over 100 µM; in [4], over 100 µM; in experiment [5], 1.58 µM; in [6] it was over 100 µM. In addition, the TGI was over 100 µM in [7], over 100 µM in experiment [8], 31.6 µM in [9] and over 100 µM in [10].
Turning to `CCN(CC)/[N+]([O-])=N/OCC(C)O` (stereo not given), the TGI in [1], in experiment [2], in [3], in experiment [4], in experiment [5] and in experiment [6] was over 100 µM throughout. Besides, the TGI in experiment [7], in experiment [8], in experiment [9] and in experiment [10] was over 100 µM each time.
Regarding `N.N.NCCCCCN.O=C([O-])CC(=O)[O-].O=C([O-])CC(=O)[O-].[Pt+4].[Pt+4]`, the GI50 in experiment [1], in experiment [2], in [3], in experiment [4], in experiment [5] and in [6] was over 100 µM in each case. Further, the GI50 is 58.6 µM in experiment [7], over 100 µM in experiment [8], 18.7 µM in experiment [9] and over 100 µM in experiment [10]. For the same compound, the TGI in [1], in experiment [2], in experiment [3], in [4], in experiment [5] and in experiment [6] was over 100 µM throughout. Moreover, the TGI in experiment [7], in [8], in experiment [9] and in [10] was over 100 µM throughout.
Turning to `CCOc1ncnc2ccc(Cl)c(I)c12`, the TGI in experiment [1], in experiment [2], in experiment [3], in experiment [4], in [5] and in [6] was over 100 µM each time. Further, the TGI is over 100 µM in experiment [7], over 100 µM in [8], over 100 µM in experiment [9] and 75.5 µM in experiment [10].
Regarding `S=C1SCN(C2CCCCCCCCCCC2)CN1C1CCCCCCCCCCC1`, the TGI in experiment [1], in experiment [2], in experiment [3], in [4], in [5] and in experiment [6] was over 100 µM throughout. Further, the TGI in experiment [7], in experiment [8], in experiment [9] and in [10] was over 100 µM each time.
As for `COC(=O)C1=C(O)c2cc3c(cc2[C@H](c2cc(OC)c(OC)c(OC)c2)C1)OCO3`, the TGI was over 100 µM in [1]; over 100 µM in [2]; over 100 µM in [3]; over 100 µM in [4]; 61.1 µM in [5]; over 100 µM in experiment [6]. Besides, the TGI is over 100 µM in experiment [7], over 100 µM in [8], 27.9 µM in [9] and 36.3 µM in experiment [10].
Regarding `COC(=O)[C@H](Cc1cn(C)cn1)NC(=O)[C@@H](NC(=O)Nc1cc(C(F)(F)F)cc(C(F)(F)F)c1)C(C)(C)C`, the GI50 in [1], in experiment [2], in experiment [3], in [4], in [5] and in [6] was over 10 µM in each case. In addition, the GI50 in experiment [7], in experiment [8], in experiment [9] and in experiment [10] was over 10 µM in each case. For the same compound, the TGI in [1], in experiment [2], in experiment [3], in [4], in experiment [5] and in experiment [6] was over 10 µM each time. Also, the TGI in [7], in [8], in experiment [9] and in experiment [10] was over 10 µM each time.
Take `CN=C(N)NC`: the TGI in [1], in [2], in experiment [3], in experiment [4], in [5] and in [6] was over 100 µM each time. The TGI in experiment [7], in [8], in [9] and in [10] was over 100 µM each time.
